Values after ≈ are worked out from the molar mass of the structure shown. Values joined by “and” are separate entries in the source; they are usually repeats but may differ in a detail not shown here. Identical values can stand only once.

One test concerns E. coli K12. The test is described as follows: microbe, parasite or virus in culture. As for the experimental part:
(§1) For 15 d in MHB, MICs were determined daily for each pseudopeptide and their antibiotic controls. This was done using cells from the well in which the compound concentration was one-half of the MIC (1/2MIC). For each compound, the 1/2MIC well from the previous day’s MIC assay plate was re-suspended and the bacteria grown to a density of about 10^8 cells ml−1. The suspension was diluted in MHB or CAMHB (10^6 cells/ml) and then used to determine the MIC of the same compound determined by micro broth dilution. All MIC measurements were performed in duplicate. Aliquots of the 5 × 10^4 cell/ml dilutions for each 1/2MIC well were periodically plated on MHB and incubated at 35°C for 18 h to verify cell density by colony counts and for visual inspection of colony phenotypes. To control compound stability, peptide solution MICs were determined during and at the end of the 15 d and were compared to cells unexposed to antibiotics. In vivo resistance was also assessed in treated mice (1.5 mg.kg^−1) for 4 d (sepsis) or 6 d (skin abscesses). […] The broth microdilution method was performed as per EUCAST recommendations on 5 independent colonies per mouse (3 mice per set, 15 colonies per drug tested). For severe sepsis and subcutaneous abscesses, in vivo resistance was determined by plating aliquots of crude kidney extracts or abscesses on plates containing 1-, 2-, 4-, or 8-fold the peptide MICs 7 or 3 d post infections, respectively.

Another test deals with E. coli 13090. Nature of the test: microbe, parasite or virus in culture. As for the experimental part: as §1
The test system of a further test is E. coli MCR1. Nature of the test: microbe, parasite or virus in culture. As for the experimental part:
as §1

The next test concerns P. aeruginosa 15643. Nature of the test: microbe, parasite or virus in culture. As for the experimental part:
as §1

A further test deals with S. aureus N315 (MRSA). The test is described as follows: microbe, parasite or virus in culture. On the procedure:
(§2) (10−4 M final concentrations). At selected time intervals, 100 μl of reaction mixture was collected, quenched by 200 μl 95% EtOH, and adjusted at pH 2 to prevent peptide adsorption to serum proteins. […] Supernatants were analyzed by RP-HPLC on an Xbridge C18 column with a linear gradient of water, 0.08% TFA, and acetonitrile with 1% TFA. HPLC peak areas were used to calculate the percentages of intact compound remaining at the various time points. MIC and MBC values were determined in triplicate in many ESKAPE clinical isolates, including a dozen MDR S. aureus, by the broth microdilution method. Peptidomimetics and antibiotics were assayed in a concentration range of 1 to 128 μM. The bacterial inoculum (5 × 10^5 colony-forming units [CFUs]/well) was prepared in MHB or CAMHB (150 μl). A Biotek Synergy 2 spectrophotometer was used to record the results after 18–20 h incubation at 35°C (±2°C). […] After every hour of culture for 4 h, serial dilutions were plated on BHI plates and incubated overnight at 37°C, and then the CFUs were counted and expressed as log CFU/ml. Phosphate-buffered saline (PBS)-exposed S. aureus MRSA was included as a control.

For a further test, the system named is MSSA (Newman). Nature of the test: microbe, parasite or virus in culture. To be noted: for MIC: Staphylococcus aureus. On the procedure: as §1
The subject of a further test is MRSA (Mu3). The test is described as follows: microbe, parasite or virus in culture. On the procedure:
as §1

The test system of another test is P. aeruginosa LESB58. The test is described as follows: Cutaneous abscess mouse model (CFU). The class given is in vivo, mice. Particulars: cutaneous abscesses induced by P. aeruginosa in mice; repeated doses post-infection, 9 mg/kg; second data set; individual values. On the procedure:
For the cutaneous abscess model, the mice were randomly divided into 5 sets. The mice were anesthetized with isoflurane, their dorsal fur shaved, and their skin disinfected with 70% ethanol. An overnight culture of S. aureus MRSA or P. aeruginosa LESB58 was washed with 0.9% NaCl, and then a subcutaneous injection of 2 × 10^9 CFUs and an equal amount of sterile Cytodex microcarrier beads (20 mg.ml^−1, Sigma) for S. aureus MRSA, or 10^8 CFUs for P. aeruginosa were injected into the shaved area. […] Mice were monitored every day and then euthanized with CO2 on Day 6 or on Day 3. Abscesses were excised, measured, and homogenized in PBS using an Ultra-Turax. Serial dilutions of the samples were plated on BHI (MRSA) or 2YT medium (LESB58) plates and then incubated overnight at 37°C. Afterward, the CFUs were counted and expressed as log CFU/ml. Dermonecrosis areas were calculated according to the formula π × L × W. ATP levels were determined with an ATP assay kit (Promega) according to manufacturer instructions on sets of 5 colonies harboring the SCV phenotype, and sets of 5 colonies harboring a normal phenotype, after growth on BHI plates.

The test system of a further test is Escherichia coli K12. Particulars: E. coli K12; broth microdilution; 3 independent experiments. On the procedure:
as §2
Background: In broth dilution the organism is exposed to a series of concentrations in liquid medium.

Another test relates to S. aureus Mu3 (MRSA). The test is described as follows: microbe, parasite or virus in culture. To be noted: S. aureus Mu3 (MRSA); broth microdilution; 3 independent experiments. On the procedure:
as §2

The subject of a further test is S. aureus Newman. Nature of the test: microbe, parasite or virus in culture. To be noted: S. aureus Newman; broth microdilution; 3 independent experiments. As for the experimental part:
as §2

As to `C[C@@H]1O[C@@H]1P(=O)(O)O` [Fosfomycin, fosfomycin, reference compound], the MIC was 27 µg/mL with E. coli K12 (E. coli K12, d0 of serial passages); 200 µM in the test with E. coli K12 (Escherichia coli, K12); 27 µg/mL in the test with E. coli 13090 (E. coli 13090, d0 of serial passages); 200 µM in the test with E. coli 13090 (Escherichia coli, 13090); 27 µg/mL against E. coli MCR1 (E. coli MCR1, d0 of serial passages); 200 µM against E. coli MCR1 (Escherichia coli, MCR1). The MIC came to 27 µg/mL in the test with P. aeruginosa 15643 (P. aeruginosa 15643, d0 of serial passages) and 200 µM in the test on P. aeruginosa 15643 (Pseudomonas aeruginosa, 15643).

Regarding `COc1cccc(OC)c1C(=O)N[C@@H]1C(=O)N2[C@@H]1SC(C)(C)[C@@H]2C(=O)O` [Methicillin, methicillin], in the test with S. aureus N315 (MRSA) (Staphylococcus aureus, MRSA), the MIC is 32 µM.

For the molecule `CO[C@H]1/C=C/O[C@@]2(C)Oc3c(C)c(O)c4c(O)c(c(/C=N/N5CCN(C)CC5)c(O)c4c3C2=O)NC(=O)/C(C)=C\C=C\[C@H](C)[C@H](O)[C@@H](C)[C@@H](O)[C@@H](C)[C@H](OC(C)=O)[C@@H]1C` [Rifampicin, rifampicin], the “Increase of MIC after 2 weeks of serial passages” value in the test with MSSA (Newman) (S. aureus) is listed as “about 30,000 fold”. Further, the MIC in the test with MSSA (Newman) (MSSA (Newman), d0 of serial passages) was 0.03 µM (≈ 0.0247 µg/mL); against MSSA (Newman) (MSSA|NEWMAN, d14 of serial passages at sub-MIC) it was 1020 µM (≈ 843 µg/mL); against MRSA (Mu3) (MRSA (Mu3), d14 of serial passages at sub-MIC), 1,024 (843) μM; with MRSA (Mu3) (Staphylococcus aureus, MRSA), 1020 µM (≈ 843 µg/mL).

Turning to Colistine, the “CFU counts per abscess” value with P. aeruginosa LESB58 was 3.8 log Cfu/ml and 4 log Cfu/ml and 4.8 log Cfu/ml and 4.6 log Cfu/ml.

As to nisin, the MIC in the test with Escherichia coli K12 was 4 (16) μM; with S. aureus Mu3 (MRSA) it was 8 (32) μM; with S. aureus Newman, 8 (32) μM; in the test with S. aureus N315 (MRSA) (S. aureus N315 (MRSA), broth microdilution, 3 independent experiments), 8 (32) μM.

The values above are taken from publication PMC6615598, “Novel antibiotics effective against gram-positive and -negative multi-resistant bacteria with limited resistance” (PLoS Biology, 2019).
